Reference: patent US20220016061A1, “Preparation Stabilized by Means of Nonaqueous Solvent” (MEDRx Co., Ltd., priority 2018, published 2022)
Counter-ions that a name gives are not always drawn.

Experiments:
[1] = Assessment of stability of baclofen hydrochloride solution (Example 3); type: physicochemical; settings: water, NMP, propylene glycol, glycerin; 50° C.
Procedure: Baclofen (10.0 g) was dissolved in 10% hydrochloric acid (20 g), the solvent in the prepared solution was frozen, and then the frozen product was dried in a lyophilizer overnight to give baclofen hydrochloride.
The resulting baclofen hydrochloride was dissolved in water, NMP (N-methylpyrrolidone), propylene glycol or glycerin to prepare each solution comprising baclofen hydrochloride in an amount of 0.25% by weight. Each of the prepared solutions was stored at 50° C. and the contexts of baclofen and ring products thereof in the solutions were measured after 1 and 2 weeks of the storage to assess the stability of baclofen.

[2] = Solubility of baclofen in solvents; type: physicochemical
From the text: The concentration of baclofen was insufficient to be used as an external preparation.

Which “stability when dissolved in the solvents” value [1] does the source give for `NCC(CC(=O)O)c1ccc(Cl)cc1` (stereo not shown) [Baclofen hydrochloride] here?
The value was “stable”.

Which results are given for `NCC(CC(=O)O)c1ccc(Cl)cc1` (stereo not shown) [baclofen, 4-amino-3-(4-chloropehnyl)butanoic acid]?
solubility in 10% hydrochloric acid ([2]; 10% hydrochloric acid): about 39%; solubility in lactic acid ([2]; lactic acid): about 33%; solubility in water ([2]; water): about 0.27%
